In ChEMBL document CHEMBL1201862, “PubChem BioAssay data set” (2004):
Values joined by “and” are separate entries in the source; they are usually repeats but may differ in a detail not shown here. Identical values can stand only once. Active and inactive are the calls of the source.

Key:
[1] = molecular target: T1, Insulin-degrading enzyme (Homo sapiens, UniProt P14735); assay: activators of endogenous IDE in HEK cells, dose response, cell-based, fluorescence polarization (AID 588439); type: functional
T1 sequence (P14735 whole entry): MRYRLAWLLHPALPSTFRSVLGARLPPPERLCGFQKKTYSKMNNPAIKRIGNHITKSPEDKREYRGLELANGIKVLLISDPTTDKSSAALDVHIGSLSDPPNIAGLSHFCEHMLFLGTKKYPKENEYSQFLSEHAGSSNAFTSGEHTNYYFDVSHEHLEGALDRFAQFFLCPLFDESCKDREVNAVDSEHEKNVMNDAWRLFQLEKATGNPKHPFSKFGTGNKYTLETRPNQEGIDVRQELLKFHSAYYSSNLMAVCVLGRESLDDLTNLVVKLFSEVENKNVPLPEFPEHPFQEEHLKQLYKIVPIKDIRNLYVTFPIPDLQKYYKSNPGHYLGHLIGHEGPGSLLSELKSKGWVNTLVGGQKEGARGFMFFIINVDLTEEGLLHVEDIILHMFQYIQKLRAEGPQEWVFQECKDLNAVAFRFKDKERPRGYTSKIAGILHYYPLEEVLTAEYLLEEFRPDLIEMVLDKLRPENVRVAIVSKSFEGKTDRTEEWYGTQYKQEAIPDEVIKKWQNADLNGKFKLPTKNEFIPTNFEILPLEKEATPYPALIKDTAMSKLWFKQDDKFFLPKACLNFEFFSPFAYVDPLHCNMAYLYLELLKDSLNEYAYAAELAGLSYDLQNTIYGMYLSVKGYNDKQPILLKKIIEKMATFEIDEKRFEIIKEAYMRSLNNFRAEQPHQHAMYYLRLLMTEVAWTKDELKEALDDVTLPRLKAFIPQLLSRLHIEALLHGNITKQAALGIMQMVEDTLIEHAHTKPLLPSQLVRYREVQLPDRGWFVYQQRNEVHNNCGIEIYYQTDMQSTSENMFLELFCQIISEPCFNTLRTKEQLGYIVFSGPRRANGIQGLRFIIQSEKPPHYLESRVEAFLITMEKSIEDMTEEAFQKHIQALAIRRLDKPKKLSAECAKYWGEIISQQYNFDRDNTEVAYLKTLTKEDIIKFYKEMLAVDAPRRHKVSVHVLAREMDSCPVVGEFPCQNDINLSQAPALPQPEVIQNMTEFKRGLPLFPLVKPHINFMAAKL

[2] = molecular target: T1, Insulin-degrading enzyme; assay: activators of recombinant IDE enzyme, dose response, counter-screen for IDE activator project, biochemical, fluorescence polarization (AID 588681)
[3] = system: HEK293; assay: optical interference in Abeta FP readout, dose response, artefact control for IDE activator project, biochemical, fluorescence polarization (AID 588442); type: functional, cell-based; conditions: Homo sapiens
[4] = system: HEK293; assay: HEK cell cytotoxicity by LDH release, dose response, cytotoxicity control for IDE activator project, fluorescence, HEK cells (AID 588440); type: functional, cell-based; conditions: Homo sapiens;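 note: cytotoxicity by LDH release measuring loss of membrane integrity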
[5] = molecular target: Protein disulfide-isomerase (Homo sapiens, UniProt P07237); assay: PDI inhibitors, insulin aggregation turbidity, dose response, biochemical, absorbance, cherry-picked samples (AID 602350); type: functional
Sequence of Protein disulfide-isomerase (P07237 whole entry): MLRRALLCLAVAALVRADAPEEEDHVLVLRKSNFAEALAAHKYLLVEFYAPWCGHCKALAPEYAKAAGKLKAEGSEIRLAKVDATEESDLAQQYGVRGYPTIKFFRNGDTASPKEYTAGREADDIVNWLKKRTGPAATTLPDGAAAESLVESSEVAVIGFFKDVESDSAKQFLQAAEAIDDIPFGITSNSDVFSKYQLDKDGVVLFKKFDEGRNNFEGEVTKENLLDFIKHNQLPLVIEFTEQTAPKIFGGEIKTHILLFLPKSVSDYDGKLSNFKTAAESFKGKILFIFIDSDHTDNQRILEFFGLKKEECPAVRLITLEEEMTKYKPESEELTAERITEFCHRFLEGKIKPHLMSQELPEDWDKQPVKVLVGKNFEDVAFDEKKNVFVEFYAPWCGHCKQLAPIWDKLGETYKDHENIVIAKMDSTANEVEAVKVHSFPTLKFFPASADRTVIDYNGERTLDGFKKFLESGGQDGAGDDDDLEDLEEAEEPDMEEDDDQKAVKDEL

[6] = molecular target: Beta-2 adrenergic receptor (Homo sapiens, UniProt P07550); assay: beta2AR agonists driving receptor internalization, dose response, cell-based, FAP fluorogen, flow cytometry, cherry pick 1 (AID 588763); type: functional
Sequence of Beta-2 adrenergic receptor (P07550 whole entry): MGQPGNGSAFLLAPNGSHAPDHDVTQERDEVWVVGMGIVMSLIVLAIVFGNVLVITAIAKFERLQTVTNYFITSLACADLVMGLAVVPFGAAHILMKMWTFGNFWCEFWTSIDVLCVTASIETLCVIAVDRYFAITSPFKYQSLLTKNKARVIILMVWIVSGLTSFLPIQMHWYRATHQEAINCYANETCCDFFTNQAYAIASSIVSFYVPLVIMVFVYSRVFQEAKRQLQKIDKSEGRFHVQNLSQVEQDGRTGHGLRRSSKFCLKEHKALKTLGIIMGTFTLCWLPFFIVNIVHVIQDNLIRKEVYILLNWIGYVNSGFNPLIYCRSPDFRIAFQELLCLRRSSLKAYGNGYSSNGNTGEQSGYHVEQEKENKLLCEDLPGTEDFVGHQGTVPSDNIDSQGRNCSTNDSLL

[7] = system: Vero; assay: Vero cell cytotoxicity, cytotoxicity control for flavivirus capping enzyme inhibitors (AID 588742); type: functional; conditions: Chlorocebus sabaeus
[8] = molecular target: Genome polyprotein (dengue virus type 2, UniProt P29990); assay: Dengue-2 NS5 methyltransferase inhibitors, primary screen, biochemical, confirmation dose response (AID 588689); type: functional
Sequence of Genome polyprotein (P29990 2492-3391 limits assumed): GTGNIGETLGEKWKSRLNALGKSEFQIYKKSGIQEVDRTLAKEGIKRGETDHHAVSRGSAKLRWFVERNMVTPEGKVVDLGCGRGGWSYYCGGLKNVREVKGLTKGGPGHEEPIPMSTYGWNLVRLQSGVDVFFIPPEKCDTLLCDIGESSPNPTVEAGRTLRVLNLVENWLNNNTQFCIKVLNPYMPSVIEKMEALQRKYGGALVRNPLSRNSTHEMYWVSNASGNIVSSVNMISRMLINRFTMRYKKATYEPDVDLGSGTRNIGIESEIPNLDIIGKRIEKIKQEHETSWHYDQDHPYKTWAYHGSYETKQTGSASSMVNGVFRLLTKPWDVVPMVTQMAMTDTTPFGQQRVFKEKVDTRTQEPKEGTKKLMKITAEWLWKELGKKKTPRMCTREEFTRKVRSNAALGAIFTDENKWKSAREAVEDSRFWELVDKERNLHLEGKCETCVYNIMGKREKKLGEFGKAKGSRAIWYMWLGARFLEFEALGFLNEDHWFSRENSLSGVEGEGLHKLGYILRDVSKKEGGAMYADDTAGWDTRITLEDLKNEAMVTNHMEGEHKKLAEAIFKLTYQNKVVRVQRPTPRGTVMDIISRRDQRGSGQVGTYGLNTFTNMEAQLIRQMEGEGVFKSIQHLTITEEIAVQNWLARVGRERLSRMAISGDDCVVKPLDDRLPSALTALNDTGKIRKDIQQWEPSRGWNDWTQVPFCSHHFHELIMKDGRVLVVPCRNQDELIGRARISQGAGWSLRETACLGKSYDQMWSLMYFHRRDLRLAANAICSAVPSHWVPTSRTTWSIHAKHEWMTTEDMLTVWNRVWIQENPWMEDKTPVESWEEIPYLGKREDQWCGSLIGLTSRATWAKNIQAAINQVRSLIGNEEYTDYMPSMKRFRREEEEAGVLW

[9] = cytotoxicity toward NIH3T3 fibroblasts, dose response, counter-screen, cell-based, ATP luminescence, mouse fibroblasts (AID 2010); type: functional;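 note: cells exposed to compound for about 90 hours before reading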
[10] = inhibitors of intracellular T. cruzi replication, confirmation, NIH3T3 host cells, beta-gal luminescence (AID 2044); type: functional, cell-based;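 note: intracellular parasites grown in NIH/3T3 mouse fibroblasts as host cells; luminescent beta-galactosidase reporter signal from transgenic T. cruzi replicating inside host cells; inhibitors lower the luminescence signal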
[11] = molecular target: T2, Protein RecA (Mycobacterium tuberculosis, UniProt P9WHJ3); assay: Fluorescence Cell-Free Homogeneous Dose Retest to Identify Inhibitors of RecA-Intein Splicing Activity. [Related pubchem assays (depositor defined):AID2097, AID2223, AID489010, AID492950]; type: functional
T2 sequence (P9WHJ3 whole entry): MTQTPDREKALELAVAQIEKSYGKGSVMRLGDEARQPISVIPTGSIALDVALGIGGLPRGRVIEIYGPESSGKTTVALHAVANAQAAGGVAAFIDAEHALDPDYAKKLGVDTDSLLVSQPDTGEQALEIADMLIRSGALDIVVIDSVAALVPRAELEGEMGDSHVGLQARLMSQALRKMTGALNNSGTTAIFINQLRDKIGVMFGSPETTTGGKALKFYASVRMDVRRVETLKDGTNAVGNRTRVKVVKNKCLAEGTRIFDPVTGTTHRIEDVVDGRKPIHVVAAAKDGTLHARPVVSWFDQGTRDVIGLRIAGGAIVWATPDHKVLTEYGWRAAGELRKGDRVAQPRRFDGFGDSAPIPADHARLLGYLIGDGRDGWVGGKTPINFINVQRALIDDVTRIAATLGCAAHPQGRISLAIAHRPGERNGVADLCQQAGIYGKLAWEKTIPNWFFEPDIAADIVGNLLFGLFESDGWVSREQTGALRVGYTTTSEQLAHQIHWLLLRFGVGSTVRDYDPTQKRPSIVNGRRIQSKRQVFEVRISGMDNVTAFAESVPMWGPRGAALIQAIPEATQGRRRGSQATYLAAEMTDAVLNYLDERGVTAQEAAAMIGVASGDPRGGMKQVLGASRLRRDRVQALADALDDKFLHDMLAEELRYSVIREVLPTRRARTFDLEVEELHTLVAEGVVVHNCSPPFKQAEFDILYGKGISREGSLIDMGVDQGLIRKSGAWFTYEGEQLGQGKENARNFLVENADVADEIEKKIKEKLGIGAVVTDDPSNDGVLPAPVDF

[12] = molecular target: T3, CAAX prenyl protease 2 (Saccharomyces cerevisiae S288c, UniProt Q03530); type: biochemical
T3 sequence (Q03530 whole entry): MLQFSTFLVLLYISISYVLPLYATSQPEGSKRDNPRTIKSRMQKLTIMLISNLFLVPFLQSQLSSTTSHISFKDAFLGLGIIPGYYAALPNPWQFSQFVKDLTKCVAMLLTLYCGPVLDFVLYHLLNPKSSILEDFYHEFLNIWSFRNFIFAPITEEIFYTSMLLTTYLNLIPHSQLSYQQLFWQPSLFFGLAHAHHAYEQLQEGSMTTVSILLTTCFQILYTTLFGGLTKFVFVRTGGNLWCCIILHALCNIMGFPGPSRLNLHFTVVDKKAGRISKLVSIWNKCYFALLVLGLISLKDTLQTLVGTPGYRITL

[13] = molecular target: T4, CAAX prenyl protease 2 (Homo sapiens, UniProt Q9Y256); assay: human Rce1 protease inhibitors, dose response, biochemical, yeast membranes, quenched-peptide fluorescence, cherry-pick (AID 588849)
T4 sequence (Q9Y256 whole entry): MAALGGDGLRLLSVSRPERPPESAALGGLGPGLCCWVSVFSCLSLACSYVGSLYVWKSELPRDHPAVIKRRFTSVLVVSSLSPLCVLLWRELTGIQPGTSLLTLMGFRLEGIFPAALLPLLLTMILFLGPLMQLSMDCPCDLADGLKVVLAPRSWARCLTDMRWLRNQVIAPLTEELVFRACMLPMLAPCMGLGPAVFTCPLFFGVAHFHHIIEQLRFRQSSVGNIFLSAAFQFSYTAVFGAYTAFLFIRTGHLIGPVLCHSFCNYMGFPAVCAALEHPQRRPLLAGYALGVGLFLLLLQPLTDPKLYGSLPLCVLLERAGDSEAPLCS

[14] = Luminescence Cell-Based Dose Confirmation HTS to Identify Activators of 5'UTR Stem-Loop Driven Alpha-Synuclein mRNA Translation in H4 Neuroglioblastoma Cells. [Related pubchem assays: 1829 (Project Summary), 1814 (Primary HTS)]; type: functional
[15] = system: H4; assay: Luminescence Cell-Based Dose Response HTS to Identify Activators of 5'UTR Stem-Loop Driven Prion Protein mRNA Translation in H4 Neuroglioblastoma Cells. [Related pubchem assays: 1829 (Project Summary), 1814 (Primary HTS)]; type: functional; conditions: Homo sapiens
[16] = molecular target: T5, Caspase-6 (Homo sapiens, UniProt P55212); assay: human caspase-6 inhibitors, dose response, biochemical, VEID-R110 fluorescence, cherry-pick (AID 720632)
T5 sequence (P55212 whole entry): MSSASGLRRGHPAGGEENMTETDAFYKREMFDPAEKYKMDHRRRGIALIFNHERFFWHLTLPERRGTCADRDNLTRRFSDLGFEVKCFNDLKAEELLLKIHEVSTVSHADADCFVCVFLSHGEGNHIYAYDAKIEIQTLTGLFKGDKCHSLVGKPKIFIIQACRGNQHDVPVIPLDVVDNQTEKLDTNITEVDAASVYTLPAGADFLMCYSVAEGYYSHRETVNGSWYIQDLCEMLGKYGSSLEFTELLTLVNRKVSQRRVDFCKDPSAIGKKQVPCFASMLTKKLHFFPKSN

[17] = Luminescence Cell-Based Dose Response HTS to Identify Activators of Luciferase Translation or Activity in H4 […] Cells. [Related pubchem assays: 1829 (Project Summary), 1814 (Primary HTS)]; type: functional
[18] = molecular target: Melanin-concentrating hormone receptor 1 (Homo sapiens, UniProt Q99705); assay: Late-stage fluorescence-based counterscreen for antagonists of the G-protein coupled receptor 7 (GPR7): cell-based dose response assay to identify antagonists of the melanin-concentrating hormone receptor 1 (MCHR1) Set 5.; type: functional
Sequence of Melanin-concentrating hormone receptor 1 (Q99705 whole entry): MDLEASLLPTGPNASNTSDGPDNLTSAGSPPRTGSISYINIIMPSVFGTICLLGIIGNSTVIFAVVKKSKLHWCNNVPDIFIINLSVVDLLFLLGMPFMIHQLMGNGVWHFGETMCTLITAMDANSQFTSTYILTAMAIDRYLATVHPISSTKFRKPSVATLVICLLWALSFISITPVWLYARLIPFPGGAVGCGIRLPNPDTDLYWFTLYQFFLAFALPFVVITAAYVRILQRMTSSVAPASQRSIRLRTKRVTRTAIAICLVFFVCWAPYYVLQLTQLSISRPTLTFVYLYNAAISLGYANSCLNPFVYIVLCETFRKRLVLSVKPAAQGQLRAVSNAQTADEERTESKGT

[19] = molecular target: T6, Aurora kinase A (Homo sapiens, UniProt O14965); type: functional;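 note: value from the Navigating the Kinome kinase panel profiling, panel entry STK6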
T6 sequence (O14965 whole entry): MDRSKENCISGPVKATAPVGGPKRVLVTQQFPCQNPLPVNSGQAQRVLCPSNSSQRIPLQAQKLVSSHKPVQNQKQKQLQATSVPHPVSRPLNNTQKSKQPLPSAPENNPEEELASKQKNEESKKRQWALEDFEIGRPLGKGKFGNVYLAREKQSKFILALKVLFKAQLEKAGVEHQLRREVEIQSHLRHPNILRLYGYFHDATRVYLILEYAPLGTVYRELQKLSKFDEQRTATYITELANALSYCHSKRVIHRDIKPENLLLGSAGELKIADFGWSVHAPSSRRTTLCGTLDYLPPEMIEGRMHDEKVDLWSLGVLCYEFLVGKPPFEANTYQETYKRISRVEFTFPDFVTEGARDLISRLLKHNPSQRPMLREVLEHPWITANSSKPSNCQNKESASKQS

[20] = molecular target: Cyclin-dependent kinase 19 (Homo sapiens, UniProt Q9BWU1); assay: Navigating the Kinome. Panel member name: CDC2L6; type: functional
Sequence of Cyclin-dependent kinase 19 (Q9BWU1 whole entry): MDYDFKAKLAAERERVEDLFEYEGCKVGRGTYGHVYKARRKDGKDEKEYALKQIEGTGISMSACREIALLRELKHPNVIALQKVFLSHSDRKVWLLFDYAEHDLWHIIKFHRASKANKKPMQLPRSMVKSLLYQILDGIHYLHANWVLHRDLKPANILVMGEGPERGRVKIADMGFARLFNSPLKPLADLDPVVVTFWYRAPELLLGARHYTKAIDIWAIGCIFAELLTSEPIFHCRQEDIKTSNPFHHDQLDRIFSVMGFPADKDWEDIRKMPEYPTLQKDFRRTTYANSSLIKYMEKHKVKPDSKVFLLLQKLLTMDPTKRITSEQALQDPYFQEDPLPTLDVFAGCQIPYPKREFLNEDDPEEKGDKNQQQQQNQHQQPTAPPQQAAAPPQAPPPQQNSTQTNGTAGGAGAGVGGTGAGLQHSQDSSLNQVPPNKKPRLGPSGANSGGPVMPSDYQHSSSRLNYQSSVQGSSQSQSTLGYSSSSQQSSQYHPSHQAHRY

With `O=C1C=C(c2ccc(-c3ccccc3)cc2)C[C@@H](c2ccc3c(c2)OCO3)C1` the EC50 [1] was > 54.7 µM (inactive), the EC50 [2] was > 54.7 µM (inactive) and the EC50 [3] was > 54.7 µM (inactive). The IC50 [4] was > 89.2 µM (inactive).
With `CNC(=S)N(Cc1cccs1)Cc1cc2cc(OC)ccc2nc1O` the EC50 [1] was > 54.7 µM (inactive), the EC50 [2] was > 54.7 µM (inactive) and the EC50 [3] was > 54.7 µM (inactive). The IC50 [4] was > 89.3 µM (inactive).
In the case of `Cc1nnc(O)c2c(NC(=O)CSc3nnnn3-c3ccc(O)cc3)oc(C)c12`, the AC50 [5] is reported as 19.5 µM (active).
With `COc1cc2c(cc1Cl)C(=O)C(F)(c1ccccc1)C(=O)N2` (centres undefined) the EC50 [6] was 7.03 µM (inactive).
For `CC(=O)C1=C(O)C(=O)N(c2cc(C(C)(C)C)on2)C1c1ccc(C(C)C)cc1` (centres undefined), the CC50 [7] was > 40 µM (active) and the IC50 [8] was 95.3 µM (active).
For `C=CCn1c(SCc2ccc(F)cc2)nnc1-c1sc2nc(C)cc(C)c2c1N`, the EC50 [9] was > 60 µM (not active), the EC50 [10] was 0.423 µM (active) and the EC50 [6] was 0.029 µM (active).
For `O=C(c1ccc2c(c1)OCO2)N(Cc1cccs1)C1(C(=O)NC2CCCCC2)CCCCC1`, the CC50 [7] was > 40 µM (active).
With `Oc1nc(Nc2ccccn2)cc2ccccc12` the EC50 [11] was > 380 µM (inactive), the AC50 [12] was > 100 µM (inactive) and the AC50 [13] was 14 µM (active). For the same compound, the EC50 [14] was 4 µM (active), the EC50 [15] was 36.8 µM (active) and the AC50 [16] was 5.89 µM (active). For the same compound, the EC50 [17] was 6.15 µM (active).
In the case of `Cc1noc(C)c1S(=O)(=O)Nc1ccc2c(c1)CC(=O)N([C@H](C)CO)C[C@H](C)[C@H](CN(C)S(=O)(=O)c1ccc(F)cc1)O2`, the AC50 [5] is reported as 16.9 µM (active) and 19.5 µM (active).
For `COc1ccc(Oc2c(Cl)cnn(CC(=O)N(c3ccccc3)c3ccccc3)c2=O)cc1`, the IC50 [18] was 10.7 µM (inactive).
For `Cc1ccc(NC(=O)Nc2ccc(-c3c(Cc4cccnc4)sc4ncnc(N)c34)cc2)cc1`, the Ki [19] was 0.0631 µM (active) and the Ki [20] was > 100 µM (inactive).
With `C/C(CC(=O)N1CCCC1)=N\NC(=O)c1cc2ccccc2cc1O` the CC50 [7] was 17.5 µM (active) and the AC50 [16] was 1.88 µM (active).
